From ChEMBL document CHEMBL1154228, “Photoregulation of thrombin aptamer activity using Bhc caging strategy” (Bioorg Med Chem Lett, 2009) come the findings set out here.

One may read the Kd as the equilibrium constant for the complex coming apart.

The target of assay [1] is T1, Prothrombin (Homo sapiens, UniProt P00734). As to the kind of experiment: Binding affinity to thrombin in presence of 100 mJ/cm'2 UV light by surface plasmon resonance assay.
The target of assay [2] is T1, Prothrombin. Briefly: Binding affinity to thrombin by surface plasmon resonance assay.

As for `Cc1cn([C@H]2C[C@H](OP(=O)(O)OC[C@H]3O[C@@H](n4cnc5c(=O)[nH]c(N)nc54)[C@H](O)[C@@H]3OP(=O)(O)OC[C@H]3O[C@@H](n4cnc5c(=O)[nH]c(N)nc54)[C@H](O)[C@@H]3OP(=O)(O)OC[C@H]3O[C@@H](n4cc(C)c(=O)[nH]c4=O)C[C@@H]3OP(=O)(O)OC[C@H]3O[C@@H](n4cc(C)c(=O)[nH]c4=O)C[C@@H]3OP(=O)(O)OC[C@H]3O[C@@H](n4cnc5c(=O)[nH]c(N)nc54)[C@H](O)[C@@H]3OP(=O)(O)OC[C@H]3O[C@@H](n4cnc5c(=O)[nH]c(N)nc54)[C@H](O)[C@@H]3O)[C@@H](COP(=O)(O)O[C@H]3[C@@H](O)[C@H](n4cnc5c(=O)[nH]c(N)nc54)O[C@@H]3COP(=O)(O)O[C@H]3C[C@H](n4cc(C)c(=O)[nH]c4=O)O[C@@H]3COP(=O)(O)O[C@H]3[C@@H](O)[C@H](n4cnc5c(=O)[nH]c(N)nc54)O[C@@H]3COP(=O)(O)O[C@H]3[C@@H](O)[C@H](n4cnc5c(=O)[nH]c(N)nc54)O[C@@H]3COP(=O)(O)O[C@H]3C[C@H](n4cc(C)c(=O)[nH]c4=O)O[C@@H]3COP(=O)(O)O[C@H]3C[C@H](n4cc(C)c(=O)[nH]c4=O)O[C@@H]3COP(=O)(O)O[C@H]3[C@@H](O)[C@H](n4cnc5c(=O)[nH]c(N)nc54)O[C@@H]3COP(=O)(O)O[C@H]3[C@@H](O)[C@H](n4cnc5c(=O)[nH]c(N)nc54)O[C@@H]3CO)O2)c(=O)[nH]c1=O` [THROMBIN APTAMER], the Kd was 390 nM on Prothrombin [1] and 320 nM at Prothrombin [2].
